pIC50: −log10 of the molar value.
Assays:
[1] = Bioavailability was evaluated in rats at a dose of 20 mg/kg, under fasting state; type: ADME, organism-based; conditions: rat, in vivo
[2] = Bioavailability was evaluated in rats at a dose of 20 mg/kg, under fed state; type: ADME, organism-based; conditions: rat, in vivo
[3] = (§1) Cmax value was evaluated in rats at a dose of 20 mg/kg; type: ADME, organism-based; set-up: dose 20 mg/kg; conditions: rat, in vivo
[4] = tested on: Rattus norvegicus; assay: as §1; type: ADME, organism-based; set-up: dose 20 mg/kg; conditions: in vivo
[5] = tested on: CEM-SS; assay: (§2) Inhibitory concentration required for antiviral activity against HXB-2 infected CEM-SS cells; type: functional; conditions: Homo sapiens
[6] = biological target: Human immunodeficiency virus type 1 protease (Human immunodeficiency virus 1, UniProt Q72874); assay: Inhibitory concentration required against HIV-1 protease
[7] = tested on: CEM-SS; assay: as §2; type: functional, cell-based; conditions: Homo sapiens

**Q.** With `CS(=O)(=O)O.Cc1c(O)cccc1C(=O)N[C@@H](CSc1ccccc1)[C@H](O)CN1C[C@H]2CCS[C@H]2C[C@H]1C(=O)NC(C)(C)C` as the molecule, how does the bioavailability [1] read?
**A.** 22%

**Q.** What about the bioavailability [2] of the same molecule?
**A.** 19%

**Q.** And the Cmax [3]?
**A.** 1400 nM

**Q.** And the Cmax [4]?
**A.** 1000 nM

**Q.** What does the source list for `Cc1c(O)cccc1C(=O)N[C@@H](CSc1ccccc1)[C@H](O)CN1C[C@H]2CCS[C@H]2C[C@H]1C(=O)NC(C)(C)C`?
**A.** IC95 [5]: 18 nM; pIC50 [6]: 9.52; pIC50 [7]: 8.29

**Q.** With `CC(C)(C)NC(=O)[C@@H]1C[C@@H]2CCCC[C@@H]2CN1C[C@@H](O)[C@H](Cc1ccccc1)NC(=O)OCc1ccccc1` as the molecule, how does the pIC50 [6] read?
**A.** 6.90

**Q.** With `CC(C)(C)NC(=O)[C@@H]1C[C@@H]2SCC[C@@H]2CN1C[C@@H](O)[C@H](Cc1ccccc1)NC(=O)OCc1ccccc1` as the molecule, how does the pIC50 [6] read?
**A.** 8.18

**Q.** For `CC(C)(C)NC(=O)[C@@H]1C[C@@H]2CCCC[C@@H]2CN1C[C@@H](O)[C@H](Cc1ccccc1)NC(=O)[C@H](CC(N)=O)NC(=O)c1ccc2ccccc2n1`, which IC95 [5] is on record?
**A.** 21 nM

**Q.** What about the pIC50 [7] of the same molecule?
**A.** 8.18

**Q.** With `Cc1c(O)cccc1C(=O)N[C@@H](Cc1ccccc1)[C@H](O)CN1C[C@H]2CCS[C@H]2C[C@H]1C(=O)NC(C)(C)C` as the molecule, how does the IC95 [5] read?
**A.** 1360 nM

**Q.** What about the pIC50 [6] of the same molecule?
**A.** 9.30

**Q.** And the pIC50 [7]?
**A.** 7.62

**Q.** For `Cc1c(O)cccc1C(=O)N[C@@H](Cc1ccccc1)[C@H](O)CN1C[C@H]2CCCC[C@H]2C[C@H]1C(=O)NC(C)(C)C`, which IC95 [5] is on record?
**A.** 135 nM

**Q.** And the pIC50 [6]?
**A.** 7.89

**Q.** And the pIC50 [7]?
**A.** 7.48

From ChEMBL document CHEMBL1128091, “Ly316340: A potent HIV-1 protease inhibitor containing a high affinity octahydrothienopyridine hydroxyethylamine isostere” (Bioorg Med Chem Lett, 1995)
